Laboratory results from publication PMC9594040, “Structure-Based Discovery of Negative Allosteric Modulators of the Metabotropic Glutamate Receptor 5” (ACS Chemical Biology, 2022).

These compounds were tested against human mGlu5 (Homo sapiens, UniProt P41594) (assay: Radioligand displacement assay (radiolabeled MPEP) on membranes of HEK293 cells stably expressing mGlu5). Settings: Ki, radioligand displacement; mean ± SEM of two experiments.
human mGlu5, sequence (P41594 21-1212): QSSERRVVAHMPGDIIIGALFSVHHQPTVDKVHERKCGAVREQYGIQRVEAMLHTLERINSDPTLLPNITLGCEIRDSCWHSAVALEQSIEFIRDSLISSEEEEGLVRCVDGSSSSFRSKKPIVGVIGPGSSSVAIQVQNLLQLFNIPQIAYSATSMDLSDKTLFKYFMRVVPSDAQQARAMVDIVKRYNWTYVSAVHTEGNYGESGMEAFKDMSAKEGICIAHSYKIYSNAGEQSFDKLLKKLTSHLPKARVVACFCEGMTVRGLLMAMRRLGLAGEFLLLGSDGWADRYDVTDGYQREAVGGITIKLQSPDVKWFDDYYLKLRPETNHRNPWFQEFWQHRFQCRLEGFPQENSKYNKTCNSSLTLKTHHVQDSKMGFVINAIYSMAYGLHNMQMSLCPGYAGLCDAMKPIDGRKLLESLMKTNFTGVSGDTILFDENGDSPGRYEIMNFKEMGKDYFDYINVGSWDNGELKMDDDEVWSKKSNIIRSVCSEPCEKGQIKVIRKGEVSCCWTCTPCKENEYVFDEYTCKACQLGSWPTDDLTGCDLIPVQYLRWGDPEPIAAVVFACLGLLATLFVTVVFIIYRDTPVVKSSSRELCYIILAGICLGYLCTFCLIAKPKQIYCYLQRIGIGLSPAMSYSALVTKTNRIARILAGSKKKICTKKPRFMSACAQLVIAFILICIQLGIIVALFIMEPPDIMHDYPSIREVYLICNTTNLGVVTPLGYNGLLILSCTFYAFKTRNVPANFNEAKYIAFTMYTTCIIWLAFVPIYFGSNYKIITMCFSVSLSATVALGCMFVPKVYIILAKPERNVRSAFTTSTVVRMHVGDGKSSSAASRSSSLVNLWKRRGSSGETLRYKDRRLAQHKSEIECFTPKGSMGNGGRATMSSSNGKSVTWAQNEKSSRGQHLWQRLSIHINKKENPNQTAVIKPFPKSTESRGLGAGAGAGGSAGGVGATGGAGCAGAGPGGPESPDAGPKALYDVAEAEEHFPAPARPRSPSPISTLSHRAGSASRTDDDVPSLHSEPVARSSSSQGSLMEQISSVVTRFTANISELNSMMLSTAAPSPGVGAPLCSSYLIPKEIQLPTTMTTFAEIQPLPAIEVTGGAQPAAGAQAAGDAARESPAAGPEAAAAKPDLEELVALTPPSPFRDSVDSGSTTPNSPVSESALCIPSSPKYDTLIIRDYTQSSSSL
Experimental: Treated cells were harvested with PBS/2 mM EDTA and washed three times with ice-cold PBS and frozen at −80 °C. The frozen cell pellet was resuspended in membrane buffer (25 mM Tris/7.4, 250 mM sucrose, 2.5 mM EDTA, 2 ug/ml aprotinin, 0.5 ug/ml leupeptin and 200 nM PMSF) and homogenized with a polytron 20–30 s at maximum power. After centrifugation at 18,000 RPM for 30 min at 4 °C, the pellet was resuspended in ice-cold membrane buffer, hand-homogenized, and centrifuged as described above. This pellet was further resuspended in ice-cold membrane buffer. The protein content was measured using the Bradford method with bovine serum albumin as the standard. The membrane homogenate was frozen at −80 °C before use. After thawing, the membranes were washed once and resuspended in ice-cold 50 mM Tris–HCl, 0.9% NaCl, pH 7.4 buffer. All incubations were performed at room temperature. For the displacement binding experiments, 15 μg of membranes were incubated with 5 nM the radioligand in the presence of 10 varying concentrations of the test compound for 2 h at room temperature with shaking. At the end of the respective incubations, the suspension was filtered onto PerkinElmer GF/C glass fiber filters (1450–421) pre-soaked in 0.5% polyethyleneimine and washed rapidly four times using a Tomtec Harvester 96 Mach III cell harvester (Tomtec, Hamden, CT) with 5 mL of cold wash buffer (50 mM Tris–HCl, pH 7.4). The radioactivity trapped on the filters was measured after heat sealing the filters with MeltiLexTM A (PerkinElmer, 1450–441) in a 1450 MicroBeta TriLux counter (PerkinElmer). […] IC50 values were derived from the inhibition curve, and Ki values were calculated according to the Cheng-Prusoff equation of Ki = IC50/(1 + [L]/Kd),[61] where [L] is the concentration of radioligand and Kd is its dissociation constant at the receptor, derived from the saturation isotherm.

Row | Structure (SMILES) | Ki
1 | N#Cc1ccc(NCC#Cc2ccccc2)cc1 [F3] | 3.4 ± 0.2 µM
2 | N#Cc1cccc(COc2ccccc2F)c1 [F4] | 8.6 ± 0.1 µM

Second part, the compound after the results:

Row | Ki | Structure (SMILES)
3 | 3.6 ± 0.1 µM | COc1ccc(Cn2cccc2-c2nc(-c3ccncc3)no2)cc1 [L3]
4 | 4 ± 0.5 µM | CN(Cc1cnn(-c2ccccc2)c1)c1noc(-c2ccccc2)n1 [L4]
5 | 4.3 ± 0.9 µM | CC(c1nc(-c2ccco2)no1)n1nnc(-c2cccc(F)c2)n1 (centres unmarked) [L5]
6 | 7.3 ± 1.3 µM | Cc1nc(-c2ccccc2)sc1C(C)N(C)C(=O)c1cnns1 (centres unmarked) [L6]
7 | 7.9 ± 0.6 µM | CN(Cc1cnn(-c2ccc(F)cc2)c1)c1nc(-c2ccccc2)no1 [L7]

Same assay, conditions: Table S1; radioligand displacement at 30 µM; mean ± SEM of two experiments

Row | Structure (SMILES) | Inhibition at 30 µM
8 | Cc1cccc(NC(=O)Cc2ccc(O)cc2)c1 [F5] | 42 ± 5%
9 | CCOc1cccc(CNC(=O)C2CC=CC2)c1 [F7] | 39 ± 7%
10 | CC(=O)c1cccc(NCc2ccccc2)c1 [F9] | 38 ± 1%
11 | Cc1ccc(C(C)NC(=O)c2ccc(F)cc2)o1 (centres unmarked) [F10] | 35 ± 8%
12 | N#Cc1ccc(OC/C=C/c2ccccc2)nc1 [F11] | 35 ± 6%
13 | COCc1cccc(Nc2cc(Cl)ncn2)c1 [F12] | 35 ± 10%
14 | C=CCNC(=O)c1ccc(Oc2ccccc2)o1 [F13] | 35 ± 10%
15 | Cc1cc(CN(C)C(=O)Nc2ccccc2)on1 [F14] | 33 ± 4%
16 | CC1CC1C(=O)N(C)CCOc1ccccc1 (centres unmarked) [F15] | 33 ± 9%
17 | CC(C)c1nccn1Cc1nc2ccccc2[nH]1 [F16] | 33 ± 5%
18 | c1ccc(-n2cc(CCn3cnnc3)cn2)cc1 [F17] | 33 ± 3%
19 | Cc1ccccc1CNc1ccc(F)c(C#N)c1 [F18] | 33 ± 9%
20 | COCc1cccc(Nc2ccnc(C#N)c2)c1 [F19] | 32 ± 4%
21 | Cn1ccnc1SCC=Cc1ccccc1 [F20] | 31 ± 1%
22 | CC(c1nc(-c2ccccc2)no1)n1ccnc1 (centres unmarked) [F21] | 31 ± 1%
23 | CN(Cc1cn2ccccc2n1)c1ccccc1 [F22] | 31 ± 1%
24 | Cc1ccoc1-c1nc(Cc2ccccc2)n[nH]1 [F23] | 30 ± 7%
25 | CCn1cnnc1CNC(=O)c1cccc(C)c1 [F24] | 30 ± 1%
26 | COc1ccc(CNC(=O)c2csnn2)cc1 [F25] | 28 ± 9%
27 | OCc1cccc(NCc2cccc(Cl)c2)c1 [F26] | 28 ± 15%
28 | CC(O)c1cccc(OCc2ccccc2)c1 (centres unmarked) [F27] | 27 ± 3%
29 | Oc1ccccc1-c1n[nH]c(-c2ccncc2)n1 [F28] | 27 ± 3%
30 | CCN(CC(O)c1ccccc1)c1ccccc1 (centres unmarked) [F29] | 27 ± 1%
31 | N#Cc1ccnc(Nc2ccc3c(c2)OCO3)c1 [F30] | 27 ± 3%
32 | CN(C)C(=O)c1cc(OCc2ccccc2)no1 [F32] | 27 ± 1%
33 | Cc1ccccc1NC(=O)c1ccnc(Cl)c1 [F33] | 26 ± 11%

Row | Structure (SMILES) | Inhibition at 30 µM
34 | O=C(Nc1ccccc1F)OCc1cccnc1 [F34] | 26 ± 4%
35 | OC(c1ccccc1)c1nc2cc(F)ccc2[nH]1 (centres unmarked) [F35] | 25 ± 12%
36 | O=C(NCc1ccncc1)c1cccc(Cl)c1 [F36] | 25 ± 3%
37 | O=C(CNC(=O)c1ccco1)Nc1ccccc1 [F37] | 25 ± 4%
38 | c1ccc(Cn2nnc(-c3ccncc3)n2)cc1 [F38] | 25 ± 3%
39 | Cc1cccc(C(=O)NC(C)c2ccncc2)n1 (centres unmarked) [F39] | 24 ± 9%
40 | CC[C@H](Nc1cnn(CC)c1)c1ccc(C)cc1 [F40] | 24 ± 7%
41 | Clc1ncnc2cc(-c3ccccc3)[nH]c12 [F41] | 24 ± 2%
42 | COc1ccc(CNC(=O)c2ccncc2)cc1 [F42] | 24 ± 8%
43 | c1ccc(-c2nsc(-n3ccnc3)n2)cc1 [F43] | 23 ± 2%
44 | C#Cc1cccc(NC(C)c2ccccc2)c1 (centres unmarked) [F44] | 23 ± 4%
45 | CC(C)C(=O)N(C)Cc1nc2ccccc2[nH]1 [F45] | 22 ± 9%
46 | CC[C@@H]1CCCC(C(=O)Nc2ccccc2)=C1O [F46] | 22 ± 1%
47 | CC(O)c1ccc(OCc2ccc(F)cc2)cc1 (centres unmarked) [F47] | 21 ± 3%
48 | CN(CCc1ccccn1)c1ccc(Cl)nn1 [F48] | 21 ± 1%
49 | C=CCN1CC(c2nc3ccccc3[nH]2)CC1=O (centres unmarked) [F49] | 20 ± 1%
50 | CC(=O)c1nc(Nc2ccccc2)sc1C [F50] | 20 ± 9%
51 | Nc1ccccc1Sc1nc2ccccc2[nH]1 [F51] | 20 ± 14%
52 | CCC(NC(=O)c1ccccn1)c1ccccc1 (centres unmarked) [F52] | 19 ± 5%
53 | Cc1cc(Cn2ccc(-c3ccccc3)n2)on1 [F53] | 19 ± 2%
54 | Fc1ccc(F)c(NCCCn2ccnc2)c1 [F55] | 19 ± 5%
55 | Clc1cccc(OCCCn2ccnc2)c1 [F56] | 18 ± 4%
56 | COCc1ccc(CNc2ncccc2F)cc1 [F57] | 17 ± 3%
57 | Cc1cccn2cc(Cn3ccccc3=O)nc12 [F58] | 16 ± 5%
58 | Nc1ccccc1-c1nc2cc(F)c(F)cc2[nH]1 [F59] | 9 ± 1%

Next, values leading:

Row | Inhibition at 30 µM | Structure (SMILES)
59 | 41 ± 7% | N#Cc1cc(CNc2ccn(-c3ncccc3Cl)n2)ccc1F [L10]
60 | 40 ± 4% | O=C(NCc1ccc(N2CCCC2)nc1)c1cnn(-c2ccccc2)c1 [L11]
61 | 39 ± 6% | O=C(NCc1ccc(-n2cccn2)cc1)c1cc2ccccc2s1 [L12]
62 | 38 ± 12% | CC1CN(C(=O)Nc2cccc(C#N)c2)CC(c2ccccc2)O1 (centres unmarked) [L14]
63 | 37 ± 6% | Cc1noc(CCC(=O)N2CCC(CSc3ccccc3)C2)n1 (centres unmarked) [L15]
64 | 36 ± 1% | O=C(Nc1cccc(OCc2ccccn2)c1)c1cccc(F)c1 [L16]
65 | 35 ± 3% | CSc1ccc(C(=O)N(C)Cc2nc3ccccc3[nH]2)o1 [L17]
66 | 34 ± 1% | O=C(NCc1cc(-c2ccco2)on1)c1cccc(Cl)c1 [L18]
67 | 34 ± 3% | O=C(NCc1ccccc1)c1csc(COc2ccc(F)cc2)n1 [L19]
68 | 34 ± 5% | CN(Cc1cnn(-c2ccccc2)c1)C(=O)c1cc(-c2ccco2)on1 [L20]
69 | 33 ± 12% | O=C(CSc1n[nH]c(-c2cccnc2)n1)Nc1cccc(Cl)c1 [L21]
70 | 32 ± 1% | O=C(Nc1cccc(F)c1)C1CCN(c2ccc(F)cc2)C1=O (centres unmarked) [L23]
71 | 32 ± 3% | O=C(CCc1cccnc1)N1CCCC(COc2cccc(F)c2)C1 (centres unmarked) [L24]
72 | 31 ± 7% | Cc1ccc(C2CC2c2nc(CNC(=O)c3ccccc3)no2)s1 (centres unmarked) [L26]
73 | 31 ± 7% | O=C(NCc1cccnc1)c1ccc(COc2ccccc2)o1 [L27]
74 | 30 ± 9% | O=C(NCc1ccnc(-n2cccn2)c1)c1ccc(Br)o1 [L29]
75 | 30 ± 5% | Cc1ccc(Cn2ccnc2C(=O)Nc2ccccc2)cc1 [L30]
76 | 29 ± 4% | Cc1ccc(Cn2cccc2-c2nc(-c3ccncc3)no2)cc1 [L31]
77 | 29 ± 3% | O=C(CCc1ccncc1)N1CC(n2cc(-c3ccccc3)nn2)C1 [L32]
78 | 29 ± 1% | CCCn1cc(C(=O)Nc2cccc(NC(=O)c3ccncc3)c2)cn1 [L34]
79 | 29 ± 8% | c1ccc(Cc2n[nH]c(-c3ccncc3)n2)cc1 [L36]
80 | 29 ± 4% | CCc1noc(COc2cccc(NC(=O)c3ccccc3)c2)n1 [L37]

Row | Inhibition at 30 µM | Structure (SMILES)
81 | 27 ± 1% | O=C(Nc1ccccn1)c1cc2occc2n1Cc1ccccc1 [L38]
82 | 27 ± 11% | O=C(CSc1ccc(-n2cccn2)nn1)Nc1ccccc1Cl [L39]
83 | 27 ± 3% | CN(Cc1cc(-c2ccccc2)no1)C(=O)CCOc1ccccc1 [L40]
84 | 26 ± 2% | CC(NC(=O)COc1ccc(Cl)cc1)C(=O)Nc1ccccc1 (centres unmarked) [L41]
85 | 26 ± 5% | Cc1ccc(F)c(NC(=O)C2CC(=O)N(CCc3ccccc3)C2)c1 (centres unmarked) [L42]
86 | 26 ± 12% | c1ccc(OCc2noc(NCc3nc4ccccc4s3)n2)cc1 [L43]
87 | 26 ± 13% | Cc1cccc(-c2c[nH]c(C3CCCN3C(=O)c3ccccn3)n2)c1 (centres unmarked) [L44]
88 | 25 ± 7% | O=C(COc1ccccc1)Nc1cccc(NC(=O)c2ccncc2)c1 [L45]
89 | 24 ± 3% | O=C(NCc1ccnc(OCc2ccccc2)c1)c1cccc(F)c1 [L46]
90 | 24 ± 3% | CCCOc1ccc(N2CC(C(=O)Nc3ccccn3)CC2=O)cc1 (centres unmarked) [L47]
91 | 23 ± 4% | Cc1csc(CNC(=O)N2CCC(COCc3ccccc3)C2)n1 (centres unmarked) [L48]
92 | 22 ± 1% | O=C(c1ccc(Cl)s1)N1CC(c2nc(-c3ccncc3)no2)C1 [L49]
93 | 20 ± 1% | O=C(COc1ccccc1)NCc1cc(-c2ccc(F)cc2)on1 [L50]
94 | 20 ± 6% | Cc1ccc(C(=O)Nc2cccc(NC(=O)c3ccncc3)c2)s1 [L51]
95 | 20 ± 1% | CCN(Cc1nc(-c2ccncc2)no1)c1ccccc1 [L52]
96 | 19 ± 2% | CC(NC(=O)c1cccc(F)c1)c1ccc(-n2cncn2)cc1 (centres unmarked) [L53]
97 | 18 ± 3% | Cc1ccc(CNC(=O)c2ccn(COc3ccc(F)cc3)n2)o1 [L54]
98 | 18 ± 3% | O=C(CSc1ccccc1)N1CC(OCc2cccc(F)c2)C1 [L55]
99 | 18 ± 6% | O=C(Nc1ccc(F)c(F)c1)C1(c2cc(-c3ccco3)on2)CC1 [L56]
100 | 17 ± 2% | O=C(COc1ccc2ccccc2c1)N1CC(c2nc(C3CC3)no2)C1 [L57]
101 | 16 ± 2% | CCOc1ccc(C(=O)N2CC(OCc3ccc(F)cc3)C2)cc1 [L58]
102 | 15 ± 1% | Cc1ccc(OCC(=O)N2CC(c3nc(-c4ccco4)no3)C2)cc1 [L59]

Same assay, conditions: Table S1; radioligand displacement; mean ± SEM of two experiments

Row | Ki | Structure (SMILES)
103 | 11 ± 1 µM | CC(CCOc1ccccc1)c1nc(-c2ccc(C#N)cn2)no1 (centres unmarked) [L8]

Same assay, conditions: radioligand displacement; mean ± SEM of two experiments

Row | Ki | Structure (SMILES)
104 | 16 µM | O=C(Nc1cccc(Cn2ccnc2)c1)c1cccc(F)c1 [L9]
